Experimental data: publication PMC9694544, “Conteltinib (CT-707) in patients with advanced ALK-positive non-small cell lung cancer: a multicenter, open-label, first-in-human phase 1 study” (BMC Medicine, 2022)

Test system: patients with ALK-positive NSCLC
Assay: Phase 1 safety assessment (TRAEs by CTCAE 4.03, DLT, MTD, RP2D)
Type: in vivo, human
Method: In the dose-escalation phase, the dose was escalated sequentially from a low to a high level with a 3 + 3 dose-escalation scheme based on the modified Fibonacci method. The starting dose for conteltinib was 50 mg orally quaque die (QD). Dose escalation proceeded to the next six cohorts of 100 mg, 200 mg, 300 mg, 450 mg, 600 mg, and 800 mg QD. For each dose, there was a PK lead-in phase where a single dose was given 7 days before cycle 1 day 1. Then, each dose was taken continuously in a 28-day cycle. The first cycle was for dose-limiting toxicity (DLT) investigation. When one of three patients experienced a DLT in a dose cohort, three additional patients were enrolled in the same dose cohort to assess the dose level in a total of six patients. All patients received conteltinib until disease progression, unacceptable toxicity, or withdrawal of consent. Patients received follow-up safety assessments for 30 days (±7 days) after the last conteltinib dose.
In the dose-expansion phase, each dose was taken continuously in a 28-day cycle. At the end of each cycle, a safety evaluation was conducted. If patients met the criteria to enter the next cycle, treatment with conteltinib was continued for subsequent cycles. All patients received conteltinib until disease progression, unacceptable toxicity, or withdrawal of consent. Patients received follow-up safety assessments for 30 days (±7 days) after the last dose of conteltinib.
The safety of conteltinib was assessed in safety set (SS) which was based on the National Cancer Institute Common Terminology Criteria for Adverse Events (CTCAE) version 4.03, laboratory tests, vital signs, ECG, and clinical observations. […] Adverse events (AEs) were judged to be treatment-related or not by investigators.
DLTs were AEs occurring in the first cycle of treatment (28 days) that were attributed to conteltinib, and the criteria were grade 4 neutropenia lasting ≥ 7 days, febrile neutropenia, grade 3 thrombocytopenia, grade 3 non-hematologic toxicity, and any conteltinib-related toxicity resulting in treatment delay > 2 weeks or discontinuation of conteltinib treatment at the assigned dose level. Besides, grade 3 nausea, vomiting, or diarrhea for ≥ 3 days or grade 4 nausea, vomiting, or diarrhea of any duration was considered as a DLT. The MTD was defined as the dose of conteltinib that would be closest to but not higher than a 33% probability of a DLT.

COc1cc(N2CCC(N3CCN(C)CC3)CC2)ccc1Nc1nc2c(c(Nc3ccccc3S(=O)(=O)NC(C)C)n1)CCN2 [Conteltinib]
3 (37.5) n (%): TRAE Nausea (100 mg QD (n=8), Grade 1–2)
0 (0.0) n (%): TRAE ALT elevated (50 mg QD (n=2), Grade 1–2) | TRAE AST elevated (50 mg QD (n=2), Grade 1–2) | TRAE Abdominal pain (50 mg QD (n=2), Grade 1–2) | TRAE Abdominal pain upper (50 mg QD (n=2), Grade 1–2) | TRAE Appetite decreased (50 mg QD (n=2), Grade 1–2) | TRAE Conjugated bilirubin elevated (50 mg QD (n=2), Grade 1–2) | TRAE Hypercholesterolemia (50 mg QD (n=2), Grade 1–2) | TRAE Hyperglycemia (50 mg QD (n=2), Grade 1–2) | TRAE Hypertriglyceridemia (50 mg QD (n=2), Grade 1–2) | TRAE Hyperuricemia (50 mg QD (n=2), Grade 1–2) | TRAE Hypoalbuminemia (50 mg QD (n=2), Grade 1–2) | TRAE Nausea (50 mg QD (n=2), Grade 1–2) | TRAE Proteinuria (50 mg QD (n=2), Grade 1–2) | TRAE Serum creatinine elevated (50 mg QD (n=2), Grade 1–2) | TRAE Vomiting (50 mg QD (n=2), Grade 1–2) | TRAE Weight loss (50 mg QD (n=2), Grade 1–2) | TRAE γ-GGT elevated (50 mg QD (n=2), Grade 1–2) | Patients with any TRAE (50 mg QD (n=2), Grade ≥ 3) | TRAE ALT elevated (50 mg QD (n=2), Grade ≥ 3) | TRAE AST elevated (50 mg QD (n=2), Grade ≥ 3) | TRAE Abdominal pain (50 mg QD (n=2), Grade ≥ 3) | TRAE Abdominal pain upper (50 mg QD (n=2), Grade ≥ 3) | TRAE Appetite decreased (50 mg QD (n=2), Grade ≥ 3) | TRAE Conjugated bilirubin elevated (50 mg QD (n=2), Grade ≥ 3) | TRAE Diarrhea (50 mg QD (n=2), Grade ≥ 3) | TRAE Hypercholesterolemia (50 mg QD (n=2), Grade ≥ 3) | TRAE Hyperglycemia (50 mg QD (n=2), Grade ≥ 3) | TRAE Hypertriglyceridemia (50 mg QD (n=2), Grade ≥ 3) | TRAE Hyperuricemia (50 mg QD (n=2), Grade ≥ 3) | TRAE Hypoalbuminemia (50 mg QD (n=2), Grade ≥ 3) | TRAE Nausea (50 mg QD (n=2), Grade ≥ 3) | TRAE Proteinuria (50 mg QD (n=2), Grade ≥ 3) | TRAE Serum creatinine elevated (50 mg QD (n=2), Grade ≥ 3) | TRAE Vomiting (50 mg QD (n=2), Grade ≥ 3) | TRAE Weight loss (50 mg QD (n=2), Grade ≥ 3) | TRAE γ-GGT elevated (50 mg QD (n=2), Grade ≥ 3) | TRAE Abdominal pain (100 mg QD (n=8), Grade 1–2) | TRAE Appetite decreased (100 mg QD (n=8), Grade 1–2) | TRAE Diarrhea (100 mg QD (n=8), Grade 1–2) | TRAE Hypoalbuminemia (100 mg QD (n=8), Grade 1–2) | TRAE Proteinuria (100 mg QD (n=8), Grade 1–2) | TRAE Weight loss (100 mg QD (n=8), Grade 1–2) | TRAE γ-GGT elevated (100 mg QD (n=8), Grade 1–2) | Patients with any TRAE (100 mg QD (n=8), Grade ≥ 3) | TRAE ALT elevated (100 mg QD (n=8), Grade ≥ 3) | TRAE AST elevated (100 mg QD (n=8), Grade ≥ 3) | TRAE Abdominal pain (100 mg QD (n=8), Grade ≥ 3) | TRAE Abdominal pain upper (100 mg QD (n=8), Grade ≥ 3) | TRAE Appetite decreased (100 mg QD (n=8), Grade ≥ 3) | TRAE Conjugated bilirubin elevated (100 mg QD (n=8), Grade ≥ 3) | TRAE Diarrhea (100 mg QD (n=8), Grade ≥ 3) | TRAE Hypercholesterolemia (100 mg QD (n=8), Grade ≥ 3) | TRAE Hyperglycemia (100 mg QD (n=8), Grade ≥ 3) | TRAE Hypertriglyceridemia (100 mg QD (n=8), Grade ≥ 3) | TRAE Hyperuricemia (100 mg QD (n=8), Grade ≥ 3) | TRAE Hypoalbuminemia (100 mg QD (n=8), Grade ≥ 3) | TRAE Nausea (100 mg QD (n=8), Grade ≥ 3) | TRAE Proteinuria (100 mg QD (n=8), Grade ≥ 3) | TRAE Serum creatinine elevated (100 mg QD (n=8), Grade ≥ 3) | TRAE Vomiting (100 mg QD (n=8), Grade ≥ 3) | TRAE Weight loss (100 mg QD (n=8), Grade ≥ 3) | TRAE γ-GGT elevated (100 mg QD (n=8), Grade ≥ 3) | TRAE ALT elevated (200 mg QD (n=3), Grade 1–2) | TRAE Abdominal pain (200 mg QD (n=3), Grade 1–2) | TRAE Abdominal pain upper (200 mg QD (n=3), Grade 1–2) | TRAE Appetite decreased (200 mg QD (n=3), Grade 1–2) | TRAE Conjugated bilirubin elevated (200 mg QD (n=3), Grade 1–2) | TRAE Diarrhea (200 mg QD (n=3), Grade 1–2) | TRAE Hypercholesterolemia (200 mg QD (n=3), Grade 1–2) | TRAE Hyperglycemia (200 mg QD (n=3), Grade 1–2) | TRAE Hypertriglyceridemia (200 mg QD (n=3), Grade 1–2) | TRAE Hypoalbuminemia (200 mg QD (n=3), Grade 1–2) | TRAE Nausea (200 mg QD (n=3), Grade 1–2) | TRAE Proteinuria (200 mg QD (n=3), Grade 1–2) | TRAE Serum creatinine elevated (200 mg QD (n=3), Grade 1–2) | TRAE Vomiting (200 mg QD (n=3), Grade 1–2) | TRAE Weight loss (200 mg QD (n=3), Grade 1–2) | TRAE γ-GGT elevated (200 mg QD (n=3), Grade 1–2) | Patients with any TRAE (200 mg QD (n=3), Grade ≥ 3) | TRAE ALT elevated (200 mg QD (n=3), Grade ≥ 3) | TRAE AST elevated (200 mg QD (n=3), Grade ≥ 3)
2 (25.0) n (%): TRAE AST elevated (100 mg QD (n=8), Grade 1–2) | TRAE Serum creatinine elevated (100 mg QD (n=8), Grade 1–2)
6 (75.0) n (%): Patients with any TRAE (100 mg QD (n=8), Grade 1–2)
1 (12.5) n (%): TRAE ALT elevated (100 mg QD (n=8), Grade 1–2) | TRAE Abdominal pain upper (100 mg QD (n=8), Grade 1–2) | TRAE Conjugated bilirubin elevated (100 mg QD (n=8), Grade 1–2) | TRAE Hypercholesterolemia (100 mg QD (n=8), Grade 1–2) | TRAE Hyperglycemia (100 mg QD (n=8), Grade 1–2) | TRAE Hypertriglyceridemia (100 mg QD (n=8), Grade 1–2) | TRAE Hyperuricemia (100 mg QD (n=8), Grade 1–2) | TRAE Vomiting (100 mg QD (n=8), Grade 1–2)
1 (33.3) n (%): TRAE AST elevated (200 mg QD (n=3), Grade 1–2) | TRAE Hyperuricemia (200 mg QD (n=3), Grade 1–2)
3 (100) n (%): Patients with any TRAE (200 mg QD (n=3), Grade 1–2)
1 (50.0) n (%): Patients with any TRAE (50 mg QD (n=2), Grade 1–2) | TRAE Diarrhea (50 mg QD (n=2), Grade 1–2)
